# Data reported in patent US20230044787A1, “TRICYCLE DIHYDROIMIDAZOPYRIMIDONE DERIVATIVE, PREPARATION METHOD THEREOF, PHARMACEUTICAL COMPOSITION AND USE THEREOF” (priority 2019, published 2023).
# Molecular target: T1, Lp-PLA2 (Homo sapiens, UniProt Q13093)
# T1 construct: aliquoted and thawed 40 μL of pooled human plasma was previously added; from tissue; host or cells: pooled human plasma
# T1 sequence (Q13093 22-441): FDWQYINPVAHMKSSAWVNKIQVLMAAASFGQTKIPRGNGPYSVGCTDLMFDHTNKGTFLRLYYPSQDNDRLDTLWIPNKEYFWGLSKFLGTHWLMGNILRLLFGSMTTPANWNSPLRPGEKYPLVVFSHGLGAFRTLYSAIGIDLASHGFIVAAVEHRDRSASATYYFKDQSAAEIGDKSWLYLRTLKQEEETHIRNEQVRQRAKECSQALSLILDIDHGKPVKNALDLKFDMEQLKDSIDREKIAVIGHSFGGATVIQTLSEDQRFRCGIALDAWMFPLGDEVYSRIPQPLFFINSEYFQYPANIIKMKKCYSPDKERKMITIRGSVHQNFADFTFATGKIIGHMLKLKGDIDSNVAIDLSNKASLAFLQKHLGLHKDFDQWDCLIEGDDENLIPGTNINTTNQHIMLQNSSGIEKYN
# Test: Lipoprotein-associated phospholipase A2 (Lp-PLA2) human plasma assay (Thio-PAF assay)
# Assay type: biochemical
# Settings: Comparison of activity data (I); pooled human plasma, 2-thio-PAF substrate, 30-min pre-incubation
row,IC50 [nM],SMILES
1,6.1,CC12COCCN1c1cc(OCc3cc(F)c(F)c(F)c3)nc(=O)n1C2 (stereo not shown) [Example 86]

# Same assay, conditions: Lp-PLA2 human plasma assay (Thio-PAF), pooled human plasma, 30-min pre-incubation at room temperature
row,SMILES,IC50 [nM]
1,"CC12COCCN1c1cc(OCc3cc(F)c(Oc4ccnc(C(F)(F)F)c4)c(F)c3)nc(=O)n1C2 (stereo not shown) [Example 78, 7-((3,5-difluoro-4-((2-(trifluoromethyl)pyridin-4-yl)oxy)benzyl)oxy)-11a-methyl-3,4,11,11a-tetrahydro-1H,9H-pyrimido[6′,1′:2,3]imidazo [5,1-c][1,4]oxazin-9-one]",5
2,"CC12COCCN1c1cc(OCc3cc(F)c(Oc4cncc(C(F)(F)F)c4)c(F)c3)nc(=O)n1C2 (stereo not shown) [Example 80, 7-((3,5-difluoro-4-((5-(trifluoromethyl)pyridin-3-yl)oxy)benzyl)oxy)-11a-methyl-3,4,11,11a-tetrahydro-1H,9H-pyrimido[6′,1′:2,3]imidazo [5,1-c][1,4]oxazin-9-one]",3.3
3,"CC12COCCN1c1cc(OCc3cc(F)c(Oc4ccc(C(F)(F)F)nc4)c(F)c3)nc(=O)n1C2 (stereo not shown) [Example 81, 7-((3,5-difluoro-4-((6-(trifluoromethyl)pyridin-3-yl)oxy)benzyl)oxy)-11a-methyl-3,4,11,11a-tetrahydro-1H,9H-pyrimido[6′,1′:2,3]imidazo [5,1-c][1,4]oxazin-9-one]",5.1
4,CC12COCCN1c1cc(OCc3cc(F)c(F)c(F)c3)nc(=O)n1C2 (stereo not shown) [Example 86],6.1
5,"O=c1nc(OCc2cc(F)c(Oc3ccnc(C(F)(F)F)c3)c(F)c2)c(F)c2n1C[C@]13CO[C@H](CN21)C3 [Example 88, (3S,11aR)-7-((3,5-difluoro-4-((2-(trifluoromethyl)pyridin-4-yl)oxy)benzyl)oxy)-6-fluoro-3,4-dihydro-1H,9H,11H-3,11a-methanopyrimido[6′,1′:2,3] imidazo[5,1-c][1,4]oxazin-9-one]",5.2
6,"Cc1cc(Oc2c(F)cc(COc3nc(=O)n4c(c3F)N3C[C@@H]5C[C@]3(CO5)C4)cc2F)ccn1 [Example 89, (3S,11aR)-7-((3,5-difluoro-4-((2-methyl-pyridin-4-yl)oxy)benzyl)oxy)-6-fluoro-3,4-dihydro-1H,9H,11H-3,11a-methanopyrimido[6′,1′:2,3] imidazo[5,1-c][1,4]oxazin-9-one]",10.9
7,N#Cc1cc(Oc2ccc(COc3nc(=O)n4c(c3F)N3C[C@@H]5C[C@]3(CO5)C4)cc2F)cc(C(F)(F)F)c1 [Example 90],4.8
8,"O=c1nc(OCc2cc(F)c(Oc3ccnc(C(F)(F)F)c3)c(F)c2)c(Cl)c2n1C[C@]13CO[C@H](CN21)C3 [Example 91, (3S,11aR)-7-((3,5-difluoro-4-((2-(trifluoromethyl)pyridin-4-yl)oxy)benzyl)oxy)-6-chloro-3,4-dihydro-1H,9H,11H-3,11a-methanopyrimido[6′,1′:2,3] imidazo[5,1-c][1,4]oxazin-9-one]",4.8
9,"Cc1c(OCc2cc(F)c(Oc3ccnc(C(F)(F)F)c3)c(F)c2)nc(=O)n2c1N1C[C@@H]3C[C@]1(CO3)C2 [Example 92, (3S,11aR)-7-((3,5-difluoro-4-((2-(trifluoromethyl)pyridin-4-yl)oxy)benzyl)oxy)-6-methyl-3,4-dihydro-1H,9H,11H-3,11a-methanopyrimido[6′,1′:2,3] imidazo[5,1-c][1,4]oxazin-9-one]",5.6
10,[2H]C1([2H])n2c(cc(OCc3cc(F)c(Oc4ccnc(C(F)(F)F)c4)c(F)c3)nc2=O)N2C[C@@H]3C[C@@]21CO3 [Example 93],3.7
11,"Cn1cc(Oc2c(F)cc(COc3cc4n(c(=O)n3)CC35CC(CN43)C5)cc2F)cn1 [Example 94, 3-((3,5-difluoro-4-((1-methyl-1H-pyrazol-4-yl)oxy)benzyl)oxy)-7,8-dihydro-1H,6H,9H-7,8a-methanopyrrolo[1′,2′:3,4] imidazo[1,2-c]pyrimidin-1-one]",92.7
12,"O=c1nc(OCc2ccc(Oc3ccnc(C(F)(F)F)c3)cc2F)cc2n1C[C@]13CO[C@H](CN21)C3 [Example 96, (3S,11aR)-7-((2-difluoro-4-((2-(trifluoromethyl)pyridin-4-yl)oxy)benzyl)oxy)-3,4-dihydro-1H,9H,11H-3,11a-methanopyrimido[6′1′:2,3] imidazo[5,1-c][1,4]oxazin-9-one]",4.7

# More lines, now with the values ahead:
row,IC50 [nM],SMILES
1,7.6,"CC12CCCCN1c1cc(OCc3ccc(Oc4ccc(Cl)c(F)c4)c(C#N)c3)nc(=O)n1C2 (stereo not shown) [Example 72, 2-(4-chloro-3-fluorophenoxy)-5-(((-9a-methyl-1-oxo-6,7,8,9,9a,10-hexahydro-1H-pyrido[1′,2′:3,4]imidazo [1,2-c]pyrimidin-3-yl)oxy)methyl)benzonitrile]"
2,4.8,"CC12CCCCN1c1cc(OCCc3ccc(Oc4ccc(Cl)c(C(F)(F)F)c4)cc3)nc(=O)n1C2 (stereo not shown) [Example 73, 3-(4-(4-chloro-3-(trifluoromethyl)phenoxy)phenethoxy)-9a-methyl-6,7,8,9,9a,10-hexahydro-1H-pyrido[1′,2′:3,4]imidazo [1,2-c]pyrimidin-1-one]"
3,22.3,"CC12CCCCN1c1cc(OCc3ccc(F)c(F)c3)nc(=O)n1C2 (stereo not shown) [Example 74, 3-((3,4-difluorobenzyl)oxy)-9a-methyl-6,7,8,9,9a,10-hexahydro-1H-pyrido [1′,2′:3,4]imidazo[1,2-c]pyrimidin-1-one]"
4,23.4,"CCC12CCCCN1c1cc(OCc3cc(F)c(Oc4ccnc(C(F)(F)F)c4)c(F)c3)nc(=O)n1C2 (stereo not shown) [Example 75, 3-((3,5-difluoro-4-((2-(trifluoromethyl)pyridin-4-yl)oxy)benzyl)oxy)-9a-ethyl-6,7,8,9,9a,10-hexahydro-1H-pyrido[1′,2′:3,4]imidazo [1,2-c]pyrimidin-1-one]"
5,42.2,"CCC12CCCCN1c1cc(OCc3cc(F)c(Oc4ccc(C(F)(F)F)nc4)c(F)c3)nc(=O)n1C2 (stereo not shown) [Example 76, 3-((3,5-difluoro-4-((6-(trifluoromethyl)pyridin-3-yl)oxy)benzyl)oxy)-9a-ethyl-6,7,8,9,9a,10-hexahydro-1H-pyrido[1′,2′:3,4]imidazo [1,2-c]pyrimidin-1-one]"
6,5.7,"CCC12CCCCN1c1cc(OCc3ccc(Oc4cccc(C(F)(F)F)c4)c(C#N)c3)nc(=O)n1C2 (stereo not shown) [Example 77, 5-(((9a-ethyl-1-oxo-6,7,8,9,9a,10-hexahydro-1H-pyrido[1′,2′:3,4]imidazo [1,2-c]pyrimidin-3-yl)oxy)methyl)-2-(3-(trifluoromethyl)phenoxy) benzonitrile]"
7,6.1,"Cc1cc(Oc2c(F)cc(COc3cc4n(c(=O)n3)CC3(C)COCCN43)cc2F)ccn1 (stereo not shown) [Example 79, 7-((3,5-difluoro-4-((2-methyl-pyridin-4-yl)oxy)benzyl)oxy)-11a-methyl-3,4,11,11a-tetrahydro-1H,9H-pyrimido[6′,1′:2,3]imidazo [5,1-c][1,4]oxazin-9-one]"
8,2,"CC12COCCN1c1cc(OCc3cc(F)c(Oc4ccc(Cl)c(C(F)(F)F)c4)c(F)c3)nc(=O)n1C2 (stereo not shown) [Example 82, 7-((4-(4-chloro-3-(trifluoromethyl)phenoxy)-3,5-difluorobenzyl)oxy)-11a-methyl-3,4,11,11a-tetrahydro-1H,9H-pyrimido[6′,1′:2,3]imidazo [5,1-c][1,4]oxazin-9-one]"
9,4.9,CC12COCCN1c1cc(OCc3ccc(Oc4cc(C#N)cc(C(F)(F)F)c4)c(F)c3)nc(=O)n1C2 (stereo not shown) [Example 83]
10,6.2,CC12COCCN1c1cc(OCc3ccc(Oc4ccc(Cl)c(C(F)(F)F)c4)c(C#N)c3)nc(=O)n1C2 (stereo not shown) [Example 84]
11,6.7,CC12COCCN1c1cc(OCc3ccc(Oc4cccc(C(F)(F)F)c4)c(C#N)c3)nc(=O)n1C2 (stereo not shown) [Example 85]
12,7.4,N#Cc1cc(Oc2ccc(COc3cc4n(c(=O)n3)CC35CC(CN43)C5)cc2F)cc(C(F)(F)F)c1 [Example 95]
